Results as given in patent US8163737B2 (Vertex Pharmaceuticals Incorporated, priority 2006, dated 2012).

How the values were obtained:
[1] = molecular target: T1, CGRP receptor (SK-N-MC membrane) (Homo sapiens, UniProt O60894+Q16602); test: I125-CGRP binding displacement assay on purified SK-N-MC membrane
T1 construct: Purified SK-N-MC membrane was purchased from Perkin Elmer; purchased Perkin Elmer; host or cells: SK-N-MC membrane
How it was run: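 Human SK-N-MC membranes incubated with compounds and I125-CGRP for 2 h at room temperature in 25 mM Tris-HCl pH 7.4, 5 mM MgCl2, 0.1% BSA, 0.05% Tween, then filtered and counted. Nonspecific binding defined with 1 uM unlabelled CGRP; percent displacement fitted to curves.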

endogenous CGRP receptor = endogenous CGRP receptor (Homo sapiens, UniProt O60894+Q16602); test: CGRP functional antagonism using SK-N-MC-BLA (4C10), β-lactamase transcriptional reporter assay; type: cell-based; conditions: SK-N-MC (4C10) cells, inhibition of β-lactamase expression in the presence of 200 pM CGRP
endogenous CGRP receptor, sequence (Q16602 23-461): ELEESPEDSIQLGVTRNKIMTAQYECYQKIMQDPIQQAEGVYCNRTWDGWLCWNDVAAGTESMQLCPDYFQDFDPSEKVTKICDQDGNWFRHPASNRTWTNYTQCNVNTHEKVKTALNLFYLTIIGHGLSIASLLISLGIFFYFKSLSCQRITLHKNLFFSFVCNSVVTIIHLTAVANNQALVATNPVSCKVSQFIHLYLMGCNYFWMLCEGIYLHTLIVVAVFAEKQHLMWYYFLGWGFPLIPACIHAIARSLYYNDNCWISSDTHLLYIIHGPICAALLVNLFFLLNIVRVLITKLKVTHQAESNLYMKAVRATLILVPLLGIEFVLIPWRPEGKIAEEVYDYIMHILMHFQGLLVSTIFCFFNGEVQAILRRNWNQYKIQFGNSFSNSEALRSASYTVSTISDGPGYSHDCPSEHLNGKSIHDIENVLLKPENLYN
endogenous CGRP receptor, sequence (O60894 27-148): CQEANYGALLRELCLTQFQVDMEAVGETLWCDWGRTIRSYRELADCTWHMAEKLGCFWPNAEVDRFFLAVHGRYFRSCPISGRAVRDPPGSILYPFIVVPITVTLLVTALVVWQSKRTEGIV

T1 sequence (Q16602 23-461): as the sequence (Q16602 23-461) above
T1 sequence (O60894 27-148): as the sequence (O60894 27-148) above

SMILES | Ki [1] [nM] | IC50 (endogenous CGRP receptor) [nM]
Cc1cc(C2SC(CC(=O)N3CCC(N4CCc5ccccc5NC4=O)CC3)C(=O)N2CCC(C)(C)C)cc2cn[nH]c12 (stereo not shown) [Compound 3] | < 1000 | < 1000
CC(C)CCN1C(=O)C(CC(=O)N2CCC(N3Cc4ccccc4NC3=O)CC2)SC1c1ccccc1C#N (stereo not shown) [Compound 227] | < 1000 | < 1000
CCN1CCN(c2c(F)cccc2C2SC(CC(=O)N3CCC(n4c(=O)[nH]c5ncccc54)CC3)C(=O)N2CCC(C)(C)C)CC1 (stereo not shown) [Compound 349] | < 1000 | < 1000
CC(C)CCN1C(=O)C(CC(=O)N2CCC(N3Cc4ccccc4NC3=O)CC2)SC1c1ccc(C#N)cc1 (stereo not shown) [Compound 63] | < 1000 | < 1000
O=C(CC1SC(c2ccccc2)N(C2CCCCC2)C1=O)N1CCC(N2Cc3ccccc3NC2=O)CC1 (stereo not shown) [Compound 1] | < 1000 | < 1000
CC(C)(C)CCN1C(=O)[C@H](CC(=O)N2CCC(n3c(=O)[nH]c4ncccc43)CC2)SC1c1cccc(F)c1N1CCC(F)C1 (stereo partly shown) [Compound 480] | < 1000 | 1000 to 5000
CC(C)(C)N1CCN(c2c(F)cccc2[C@@H]2S[C@@H](CC(=O)N3CCC(N4CCc5ccccc5NC4=O)CC3)C(=O)N2CCc2ccc(F)cc2)CC1 [Compound 504] | < 1000 | < 1000
O=C(CC1SC(c2ccccc2)N(CC2CC2)C1=O)N1CCC(N2Cc3ccccc3NC2=O)CC1 (stereo not shown) [Compound 271] | < 1000 | < 1000
CC(C)CCN1C(=O)C(CC(=O)N2CCC(N3Cc4ccccc4NC3=O)CC2)SC12CCSCC2 (stereo not shown) [Compound 84] | < 1000 | < 1000
CC(C)(C)N1CCN(c2c(F)cccc2[C@@H]2S[C@@H](CC(=O)N3CCC(N4CCc5ccccc5NC4=O)CC3)C(=O)N2CC2CC2)CC1 [Compound 488] | < 1000 | < 1000
CC(C)(C)CCN1C(=O)[C@H](CC(=O)N2CCC(N3CCc4ccccc4NC3=O)CC2)SC1c1cc(F)cc(F)c1N1CCN(C(C)(C)C)CC1 (stereo partly drawn) [Compound 478, (5S)-2-(2-(4-tert-Butylpiperazin-1-yl)-3,5-difluorophenyl)-3-(3,3-dimethylbutyl)-5-(2-oxo-2-(4-(2-oxo-4,5-dihydro-1H-benzo[d][1,3]diazepin-3(2H)-yl)piperidin-1-yl)ethyl)thiazolidin-4-one] | < 1000 | < 1000
CC(C)OCCN1C(=O)[C@H](CC(=O)N2CCC(N3CCc4ccccc4NC3=O)CC2)SC1c1cccc(F)c1N1CCN(C(C)(C)C)CC1 (stereo partly shown) [Compound 526] | < 1000 | < 1000
CC(C)(C)CCN1C(=O)C(CC(=O)N2CCC(N3Cc4ccccc4NC3=O)CC2)SC12CCc1ccccc12 (stereo not shown) [Compound 317] | < 1000 | 1000 to 5000
CC(C)(C)CCN1C(=O)[C@H](CC(=O)N2CCC(N3CCc4ccccc4NC3=O)CC2)SC1c1cccc(F)c1N1CCC(N)C1 (stereo partly shown) [Compound 471] | < 1000 | < 1000
CC(C)(C)CCN1C(=O)[C@H](CC(=O)N2CCC(n3c(=O)[nH]c4ncccc43)CC2)SC1c1cccc(F)c1C1CCN(C(=O)OC(C)(C)C)CC1 (stereo partly shown) [Compound 551] | 1000 to 5000 | > 5000
COCCN1C(=O)[C@H](CC(=O)N2CCC(N3CCc4ccccc4NC3=O)CC2)SC1c1cccc(F)c1N1CCN(C(C)(C)C)CC1 (stereo partly shown) [Compound 533] | < 1000 | < 1000
CN(C)CCNc1c(F)cccc1C1S[C@@H](CC(=O)N2CCC(N3CCc4ccccc4NC3=O)CC2)C(=O)N1CCC(C)(C)C (stereo partly drawn) [Compound 513, 3-(1-(2-((5S)-2-(2-(2-(Dimethylamino)ethylamino)-3-fluorophenyl)-3-(3,3-dimethylbutyl)-4-oxothiazolidin-5-yl)acetyl)piperidin-4-yl)-4,5-dihydro-1H-benzo[d][1,3]diazepin-2(3H)-one] | < 1000 | < 1000
CC(C)(C)CCN1C(=O)[C@H](CC(=O)N2CCC(N3CCc4ccccc4NC3=O)CC2)SC1c1ccccc1N1CCNCC1=O (stereo partly shown) [Compound 512] | < 1000 | < 1000
CC(C)CCN1CCC(c2ncc(C3S[C@@H](CC(=O)N4CCC(N5CCc6ccccc6NC5=O)CC4)C(=O)N3CCC(C)(C)C)s2)CC1 (stereo partly shown) [Compound 519] | < 1000 | < 1000
CC(C)(C)CCN1C(=O)[C@H](CC(=O)N2CCC(n3c(=O)[nH]c4ncccc43)CC2)SC1c1ccccc1N1CCNCC1=O (stereo partly shown) [Compound 527] | < 1000 | < 1000
CC(C)(C)CCN1C(=O)[C@H](CC(=O)N2CCC(N3CCc4ccccc4NC3=O)CC2)SC1c1cccc(F)c1N1CC[C@H](O)C1 (stereo partly shown) [Compound 485] | < 1000 | 1000 to 5000
CC(C)(C)N1CCN(c2c(F)cccc2[C@H]2S[C@@H](CC(=O)N3CCC(N4CCc5ccccc5NC4=O)CC3)C(=O)N2CC2CCCCC2)CC1 [Compound 514] | < 1000 | < 1000

SMILES | Ki [1] [nM] | IC50 (endogenous CGRP receptor) [nM]
O=C(CC1SC(c2cccc(F)c2F)N(CC2CCCCC2)C1=O)N1CCC(N2CCc3ccccc3NC2=O)CC1 (stereo not shown) [Compound 279] | < 1000 | < 1000
CCN1CCC2(CC1)SC(CC(=O)N1CCC(N3CCc4ccccc4NC3=O)CC1)C(=O)N2CCC(C)(C)C (stereo not shown) [Compound 288] | < 1000 | < 1000
CC(C)(C)CCN1C(=O)C(CC(=O)N2CCC(n3c(=O)[nH]c4ccccc43)CC2)S[C@H]1c1ccccc1N1CCC(O)CC1 (stereo partly shown) [Compound 296] | < 1000 | < 1000
CC(C)(C)CCN1C(=O)[C@H](CC(=O)N2CCC(N3CCc4ccccc4NC3=O)CC2)SC1c1cnc(C2CCNCC2)s1 (stereo partly drawn) [Compound 497, (5S)-3-(3,3-Dimethylbutyl)-5-(2-oxo-2-(4-(2-oxo-4,5-dihydro-1H-benzo[d][1,3]diazepin-3(2H)-yl)piperidin-1-yl)ethyl)-2-(2-(piperidin-4-yl)thiazol-5-yl)thiazolidin-4-one] | < 1000 | < 1000
CC(C)CN1C(=O)[C@H](CC(=O)N2CCC(n3c(=O)[nH]c4ncccc43)CC2)S[C@@H]1c1cccc(F)c1N1CCN(C(C)(C)C)CC1 [Compound 495] | < 1000 | < 1000
CC(C)CCN1C(=O)C(CC(=O)N2CCC(N3Cc4ccccc4NC3=O)CC2)[S+]([O-])C1c1ccccc1 (stereo not shown) [Compound 118] | < 1000 | 1000 to 5000
CC(C)CCN1C(=O)C(CC(=O)N2CCC(N3CCc4ccccc4NC3=O)CC2)SC1c1ccc(F)cc1F (stereo not shown) [Compound 44] | < 1000 | < 1000
O=C(CC1SC(c2ccccc2)N(CC2CCCCC2)C1=O)N1CCC(N2Cc3ccccc3NC2=O)CC1 (stereo not shown) [Compound 264] | < 1000 | < 1000
CC(C)(C)CCN1C(=O)[C@H](CC(=O)N2CCC(n3c(=O)[nH]c4ncccc43)CC2)SC1c1ccccc1C1CCNCC1 (stereo partly shown) [Compound 528] | < 1000 | < 1000
CC(C)CCN1C(=O)C(CC(=O)N2CCC(n3c(=O)[nH]c4ccccc43)CC2)SC1c1ccccc1 (stereo not shown) [Compound 104] | > 5000 | > 5000
CC(C)CN1C(=O)[C@H](CC(=O)N2CCC(N3CCc4ccccc4NC3=O)CC2)SC1c1cccc(F)c1N1CCN(C(C)(C)C)CC1 (stereo partly shown) [Compound 494] | < 1000 | < 1000
CC(C)(C)N1CCN(c2c(F)cccc2C2S[C@@H](CC(=O)N3CCC(n4c(=O)[nH]c5ncccc54)CC3)C(=O)N2CCc2ccc(F)cc2)CC1 (stereo partly shown) [Compound 505] | < 1000 | < 1000
CC(C)(C)CCN1C(=O)[C@H](CC(=O)N2CCC(N3CCc4ccccc4NC3=O)CC2)SC1c1cnc(C2CCN(C(=O)OC(C)(C)C)CC2)s1 (stereo partly drawn) [Compound 492, tert-Butyl 4-(5-((5S)-3-(3,3-dimethylbutyl)-4-oxo-5-(2-oxo-2-(4-(2-oxo-4,5-dihydro-1H-benzo[d][1,3]diazepin-3(2H)-yl)piperidin-1-yl)ethyl)thiazolidin-2-yl)thiazol-2-yl)piperidine-1-carboxylate] | < 1000 | 1000 to 5000
CC(C)(C)CCN1C(=O)C(CC(=O)N2CCC(N3Cc4ccccc4NC3=O)CC2)SC1c1ccccc1N1CCN(c2ccccc2)CC1 (stereo not shown) [Compound 367] | < 1000 | < 1000
CC(C)CCN1C(=O)C(CC(=O)N2CCC(N3Cc4ccccc4NC3=O)CC2)SC1c1ccccn1 (stereo not shown) [Compound 266] | < 1000 | < 1000
CC(C)(C)CCN1C(=O)C(CC(=O)N2CCC(n3c(=O)[nH]c4ccccc43)CC2)SC1c1ccccc1-n1cccn1 (stereo not shown) [Compound 297] | < 1000 | < 1000
CN(C)[C@H]1CCN(c2ccccc2C2SC(CC(=O)N3CCC(N4CCc5ccccc5NC4=O)CC3)C(=O)N2CCC(C)(C)C)C1 (stereo partly shown) [Compound 407] | < 1000 | < 1000
CC(C)(C)CCN1C(=O)[C@H](CC(=O)N2CCC(N3CCc4ccccc4NC3=O)CC2)SC1c1ccccc1C1CCN(C(=O)OC(C)(C)C)CC1 (mixture of isomers) [Compound 500] | < 1000 | > 5000
CC(C)CCN1C(=O)C(CC(=O)N2CCC(N3Cc4ccccc4NC3=O)CC2)S(=O)(=O)C1c1ccccc1 (stereo not shown) [Compound 122] | < 1000 | > 5000
CN1CCN(c2cccc(F)c2C2SC(CC(=O)N3CCC(n4c(=O)[nH]c5ncccc54)CC3)C(=O)N2CCC(C)(C)C)CC1 (stereo not shown) [Compound 350] | < 1000 | < 1000
CC(C)CCN1C(=O)C(CC(=O)N2CCC(n3cc(-c4ccccc4)[nH]c3=O)CC2)SC1c1ccc(F)c(F)c1 (stereo not shown) [Compound 127] | > 5000 | 1000 to 5000
CC(C)CC1SC(CC(=O)N2CCC(N3Cc4ccccc4NC3=O)CC2)C(=O)N1CCc1ccncc1 (stereo not shown) [Compound 43] | < 1000 | 1000 to 5000
